# Assays:
# [1] = Stability of 6555 with stabilizers over hours without AAPH (50 mM NH4OAc at RT or Ultrapura water at 40° C.); assay type: physicochemical
# Source text: The effect of specified sulfur-containing compounds and other stabilizer compounds (including non-sulfur-containing stabilizer compounds) and mixtures of sulfur-containing compounds and non-sulfur-containing stabilizer compounds with the boronic acid compound 6555 (structure shown above) at various pH values.
# [2] = target: recombinant human fibroblast activation protein (FAP) (Homo sapiens (Human), UniProt Q12884); assay: In vitro assay fibroblast activation protein IC50 (Example 21); assay type: biochemical
# [3] = target: recombinant human dipeptidyl peptidase IV (DPPIV) (Homo sapiens (Human), UniProt P27487); assay: In vitro assay dipeptidyl peptidase IV IC50 (Example 21); assay type: biochemical
# [4] = Degradation in aqueous solution of pH about 3 during HPLC purification and lyophilization; settings: during HPLC purification and subsequent lyophilization
# Sequence of recombinant human dipeptidyl peptidase IV (DPPIV) (P27487 whole entry): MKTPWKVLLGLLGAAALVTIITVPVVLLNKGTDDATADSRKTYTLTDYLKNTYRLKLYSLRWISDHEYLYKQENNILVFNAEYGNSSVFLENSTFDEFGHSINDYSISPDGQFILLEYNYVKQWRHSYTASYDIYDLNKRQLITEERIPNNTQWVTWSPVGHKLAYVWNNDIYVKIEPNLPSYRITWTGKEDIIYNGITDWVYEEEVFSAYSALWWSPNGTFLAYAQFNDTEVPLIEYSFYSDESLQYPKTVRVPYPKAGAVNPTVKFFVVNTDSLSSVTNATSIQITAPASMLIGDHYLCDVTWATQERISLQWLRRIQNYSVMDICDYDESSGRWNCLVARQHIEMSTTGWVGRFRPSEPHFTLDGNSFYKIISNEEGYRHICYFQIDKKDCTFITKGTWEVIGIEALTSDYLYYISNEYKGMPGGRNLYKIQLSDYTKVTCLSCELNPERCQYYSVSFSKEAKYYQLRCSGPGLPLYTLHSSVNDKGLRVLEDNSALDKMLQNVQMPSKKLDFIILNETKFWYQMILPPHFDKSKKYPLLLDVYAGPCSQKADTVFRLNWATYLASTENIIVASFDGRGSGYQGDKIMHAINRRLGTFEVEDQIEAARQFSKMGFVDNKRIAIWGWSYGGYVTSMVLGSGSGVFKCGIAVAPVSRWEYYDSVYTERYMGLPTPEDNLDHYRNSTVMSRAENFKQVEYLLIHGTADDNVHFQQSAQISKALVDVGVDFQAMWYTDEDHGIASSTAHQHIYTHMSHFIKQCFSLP
# Sequence of recombinant human fibroblast activation protein (FAP) (Q12884 whole entry): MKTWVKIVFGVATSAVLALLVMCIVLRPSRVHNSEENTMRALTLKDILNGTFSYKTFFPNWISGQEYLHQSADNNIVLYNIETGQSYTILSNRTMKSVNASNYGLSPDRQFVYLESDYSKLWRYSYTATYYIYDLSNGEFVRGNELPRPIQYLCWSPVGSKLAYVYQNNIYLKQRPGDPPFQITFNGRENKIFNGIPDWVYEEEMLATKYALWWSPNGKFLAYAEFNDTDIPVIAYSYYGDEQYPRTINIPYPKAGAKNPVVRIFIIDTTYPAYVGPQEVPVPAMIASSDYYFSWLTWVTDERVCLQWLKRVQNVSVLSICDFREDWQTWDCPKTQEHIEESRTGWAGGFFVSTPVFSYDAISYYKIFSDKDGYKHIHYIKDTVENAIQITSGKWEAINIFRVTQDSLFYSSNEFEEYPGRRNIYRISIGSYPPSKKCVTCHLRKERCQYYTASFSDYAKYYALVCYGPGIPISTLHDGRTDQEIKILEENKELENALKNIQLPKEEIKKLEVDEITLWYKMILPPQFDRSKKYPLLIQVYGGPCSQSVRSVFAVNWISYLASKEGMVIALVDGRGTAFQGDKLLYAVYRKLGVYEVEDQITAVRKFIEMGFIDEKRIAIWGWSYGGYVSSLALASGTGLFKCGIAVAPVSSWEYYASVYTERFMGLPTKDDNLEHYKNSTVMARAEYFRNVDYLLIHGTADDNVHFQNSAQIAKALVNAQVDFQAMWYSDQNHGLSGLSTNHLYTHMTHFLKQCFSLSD
smiles,measurement,setting,value
"C[C@@H](NC(=O)c1ccc(CNC(=O)CN2CCN(CC(=O)O)CCN(CC(=O)O)CCN(CC(=O)O)CC2)cc1)C(=O)N1CCC[C@H]1B(O)O [compound 6555, DOTA-aminomethyl-Bz-D-Ala-boroPro]",6555 Remaining (%),"[1]; 50 mM NH4OAc, RT, 6 hr, (−) mode, no stabilizer, pH 5.4",74.5%
same,6555 Remaining (%),"[1]; 50 mM NH4OAc, RT, 6 hr, (−) mode, sodium metabisulfite 5 mM, pH 5.1",63.3%
same,6555 Remaining (%),"[1]; 50 mM NH4OAc, RT, 7 hr, (−) mode, sodium ascorbate 5 mM, sodium gentisate 2 mM, sodium metabisulfite 5 mM, disodium hydrosulfite 5 mM, pH 5.2",77.4%
same,6555 Remaining (%),"[1]; 50 mM NH4OAc, RT, 7 hr, (−) mode, sodium metabisulfite 5 mM, disodium hydrosulfite 5 mM, pH 5.1",66.9%
same,6555 Remaining (%),"[1]; 50 mM NH4OAc, RT, 8 hr, (−) mode, NAM 5 mM, sodium metabisulfite 5 mM, pH 4.9",63.2%
same,6555 Remaining (%),"[1]; 50 mM NH4OAc, RT, 8 hr, (−) mode, sodium metabisulfite 25 mM, pH 4.2",63.2%
same,6555 Remaining (%),"[1]; 50 mM NH4OAc, RT, 26 hr, (+) mode, no stabilizer, pH 5.4",95.7%
same,6555 Remaining (%),"[1]; 50 mM NH4OAc, RT, 26 hr, (+) mode, sodium ascorbate 5 mM, sodium gentisate 2 mM, sodium metabisulfite 5 mM, disodium hydrosulfite 5 mM, pH 5.2",96.7%
same,6555 Remaining (%),"[1]; 50 mM NH4OAc, RT, 31 hr, (−) mode, no stabilizer, pH 5.4",82.2%
same,6555 Remaining (%),"[1]; 50 mM NH4OAc, RT, 31 hr, (−) mode, sodium ascorbate 5 mM, sodium gentisate 2 mM, sodium metabisulfite 5 mM, disodium hydrosulfite 5 mM, pH 5.2",77.4%
same,6555 Remaining (%),"[1]; Ultrapura water, 40° C., 17 hr, (+) mode, no stabilizer, pH 5.2",95.4%
same,6555 Remaining (%),"[1]; Ultrapura water, 40° C., 17 hr, (+) mode, sodium ascorbate 5 mM, sodium gentisate 2 mM, sodium metabisulfite 5 mM, disodium hydrosulfite 5 mM, pH 5",96.1%
same,6555 Remaining (%),"[1]; Ultrapura water, 40° C., 18 hr, (+) mode, sodium ascorbate 5 mM, sodium gentisate 2 mM, NAM 5 mM, disodium hydrosulfite 5 mM, pH 5.0",96.2%
same,6555 Remaining (%),"[1]; Ultrapura water, 40° C., 18 hr, (+) mode, sodium ascorbate 5 mM, sodium gentisate 2 mM, NAM 5 mM, sodium metabisulfite 5 mM, pH 5.1",95.6%
same,6555 Remaining (%),"[1]; Ultrapura water, 40° C., 27 hr, (−) mode, sodium ascorbate 5 mM, sodium gentisate 2 mM, NAM 5 mM, disodium hydrosulfite 5 mM, pH 5.0",85.3%
same,6555 Remaining (%),"[1]; Ultrapura water, 40° C., 27 hr, (−) mode, sodium ascorbate 5 mM, sodium gentisate 2 mM, NAM 5 mM, sodium metabisulfite 5 mM, pH 5.1",92.8%
same,6555 Remaining (%),"[1]; Ultrapura water, 40° C., 28 hr, (−) mode, no stabilizer, pH 5.2",83.7%
same,6555 Remaining (%),"[1]; Ultrapura water, 40° C., 28 hr, (−) mode, sodium ascorbate 5 mM, sodium gentisate 2 mM, sodium metabisulfite 5 mM, disodium hydrosulfite 5 mM, pH 5.0",82.9%
same,6555 Remain (%),"[1]; mM: ascorbate 0, gentisate 0, NAM 0, metabisulfite 0, hydrosulfite 0, pH 5.2, 17 hrs, SID 90754",95.4%
same,6555 Remain (%),"[1]; mM: ascorbate 0, gentisate 0, NAM 0, metabisulfite 0, hydrosulfite 0, pH 5.2, 28 hrs, SID 90768",83.7%
same,6555 Remain (%),"[1]; mM: ascorbate 0, gentisate 0, NAM 0, metabisulfite 0, hydrosulfite 0, pH 5.4, 6 hrs, SID 90779",74.5%
same,6555 Remain (%),"[1]; mM: ascorbate 0, gentisate 0, NAM 0, metabisulfite 0, hydrosulfite 0, pH 5.4, 26 hrs, SID 90844",95.7%
same,6555 Remain (%),"[1]; mM: ascorbate 0, gentisate 0, NAM 0, metabisulfite 0, hydrosulfite 0, pH 5.4, 31 hrs, SID 90853",82.2%
same,6555 Remain (%),"[1]; mM: ascorbate 0, gentisate 0, NAM 0, metabisulfite 5, hydrosulfite 0, pH 4.9, 8 hrs, SID 90787",63.2%
same,6555 Remain (%),"[1]; mM: ascorbate 0, gentisate 0, NAM 0, metabisulfite 5, hydrosulfite 0, pH 5.1, 6 hrs, SID 90780",63.3%
same,6555 Remain (%),"[1]; mM: ascorbate 0, gentisate 0, NAM 0, metabisulfite 5, hydrosulfite 5, pH 5.1, 7 hrs, SID 90783",66.9%
same,6555 Remain (%),"[1]; mM: ascorbate 0, gentisate 0, NAM 0, metabisulfite 25, hydrosulfite 0, pH 4.2, 8 hrs, SID 90790",63.2%
same,6555 Remain (%),"[1]; mM: ascorbate 5, gentisate 2, NAM 0, metabisulfite 5, hydrosulfite 5, pH 5, 17 hrs, SID 90756",96.1%
same,6555 Remain (%),"[1]; mM: ascorbate 5, gentisate 2, NAM 0, metabisulfite 5, hydrosulfite 5, pH 5, 28 hrs, SID 90772",82.9%
same,6555 Remain (%),"[1]; mM: ascorbate 5, gentisate 2, NAM 0, metabisulfite 5, hydrosulfite 5, pH 5.2, 7 hrs, SID 90786",77.4%
same,6555 Remain (%),"[1]; mM: ascorbate 5, gentisate 2, NAM 0, metabisulfite 5, hydrosulfite 5, pH 5.2, 26 hrs, SID 90845",96.7%
same,6555 Remain (%),"[1]; mM: ascorbate 5, gentisate 2, NAM 0, metabisulfite 5, hydrosulfite 5, pH 5.2, 31 hrs, SID 90854",77.4%
same,6555 Remain (%),"[1]; mM: ascorbate 5, gentisate 2, NAM 5, metabisulfite 0, hydrosulfite 5, pH 5.0, 18 hrs, SID 90755",96.2%
same,6555 Remain (%),"[1]; mM: ascorbate 5, gentisate 2, NAM 5, metabisulfite 0, hydrosulfite 5, pH 5.0, 27 hrs, SID 90771",85.3%
same,6555 Remain (%),"[1]; mM: ascorbate 5, gentisate 2, NAM 5, metabisulfite 5, hydrosulfite 0, pH 5.1, 18 hrs, SID 90753",95.6%
same,6555 Remain (%),"[1]; mM: ascorbate 5, gentisate 2, NAM 5, metabisulfite 5, hydrosulfite 0, pH 5.1, 27 hrs, SID 90769",92.8%
same,IC50,[2],3.8 nM
same,IC50,[3],> 100000 nM
same,degradation in aqueous solution,[4],did not observe any sign of degradation

# Source: US20240207292A1, “BORONIC ACID COMPOUNDS, COMPOSITIONS AND METHODS” (Trustees of Tufts College, priority 2021, published 2024)
